Measured values from patent US20260217686A1, “N-Myristoyltransferase Inhibitors And Methods Of Use” (Seattle Children's Hospital (d/b/a Seattle Children's …, priority 2022, published 2026).
Like-named read-outs stand apart in the source and are kept apart here.

Legend:
[1] = molecular target: T1, PvNMT (Plasmodium vivax, UniProt A5K1A2); experiment: biochemical; assay type: biochemical
T1 construct: Gly-Pro stays on the protein after cleavage) (N, cleaved yes); host or cells: E. coli Rosetta 2 (DE3) pRARE
T1 sequence (A5K1A2 entry or part of it): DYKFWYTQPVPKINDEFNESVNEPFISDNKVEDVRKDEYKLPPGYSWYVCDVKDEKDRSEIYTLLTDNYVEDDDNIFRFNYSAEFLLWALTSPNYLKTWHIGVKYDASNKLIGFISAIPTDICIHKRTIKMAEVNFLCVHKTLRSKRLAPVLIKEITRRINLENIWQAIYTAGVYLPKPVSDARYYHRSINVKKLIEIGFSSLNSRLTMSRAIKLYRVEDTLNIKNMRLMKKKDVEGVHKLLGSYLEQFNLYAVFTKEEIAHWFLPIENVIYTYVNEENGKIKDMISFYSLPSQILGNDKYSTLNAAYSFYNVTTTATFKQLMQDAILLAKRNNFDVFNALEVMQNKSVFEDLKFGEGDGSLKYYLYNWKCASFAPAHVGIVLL
Text: NMT activity was indirectly measured through the detection of free CoA by the thiol-reactive probe 7-diethylamino-3-(4′-maleimidylphenyl)-4-methylcoumarin (CPM).
This study aimed to identify NMT is with high selectivity for the P. vivax enzyme compared with human NMTs and high potency against the different stages of the P. vivax parasite. For this purpose, a structure-guided approach was applied using previously reported NMT inhibitors as scaffolds to develop a new generation of PvNMT-targeting compounds. The NMT activity of these inhibitors was first measured using biochemical assays through the detection of free CoA by the thiol-reactive probe 7-diethylamino-3-(4′-maleimidylphenyl)-4-methylcoumarin (CPM). Their antiparasitic activity were further evaluated by measuring blood-stage parasite load and inhibition of P. vivax liver-stage schizont and hypnozoite infection. […] Cytotoxicity was assessed in the human hepatoma HepG2 cell line. Synchronized P. falciparum NF54 ring-stage parasites were used for measuring blood-stage parasite load. […] In vitro experiments were repeated at least twice. A single concentration of each inhibitor was initially used to evaluate the inhibition of P. vivax liver stage schizont and hypnozoite infection, followed by the determination of the dose-response relationship.
To measure the activity of the purified PvNMT an assay was adapted from the literature. […] Working stock solutions were made fresh adding DMSO for final concentrations of either 1% or 5% DMSO. […] The plate was incubated for 30 min at room temperature. The enzymatic reaction was initiated by adding 50 μL of reaction substrate containing 10 µM myrCoA and PfARF, as well as 8 μM CPM. Fluorescent readings were taken on a Spectra M2 plate reader (Molecular Devices) with excitation at 385 nm and emission at 485 nm. Fluorescent intensity was measured continuously in one-minute intervals for 45 minutes. Background fluorescence and noise were determined by replacing each constituent of the reaction individually with assay buffer containing 1% DMSO and values were deducted from experimental samples. The enzymatic reactions were set up with varying pHs (6.0-8.5) of the assay buffer to determine optimal reaction conditions with minimal background and off target reactions. In lieu of compound, 10 μL of 10% DMSO/H2O was added to each well. Fluorescence signal was obtained continuously for 45 min. […] IC50 calculations were calculated using Prism (GraphPad Software, Inc).

[2] = molecular target: T2, HsNMT1 (Homo sapiens, UniProt P30419); experiment: NMT activity assay (CPM detection of free CoA), human NMT; assay type: biochemical; details: read-out: HsNMT IC50 (nM)*
T2 construct: made in house
T2 sequence (P30419 1-496): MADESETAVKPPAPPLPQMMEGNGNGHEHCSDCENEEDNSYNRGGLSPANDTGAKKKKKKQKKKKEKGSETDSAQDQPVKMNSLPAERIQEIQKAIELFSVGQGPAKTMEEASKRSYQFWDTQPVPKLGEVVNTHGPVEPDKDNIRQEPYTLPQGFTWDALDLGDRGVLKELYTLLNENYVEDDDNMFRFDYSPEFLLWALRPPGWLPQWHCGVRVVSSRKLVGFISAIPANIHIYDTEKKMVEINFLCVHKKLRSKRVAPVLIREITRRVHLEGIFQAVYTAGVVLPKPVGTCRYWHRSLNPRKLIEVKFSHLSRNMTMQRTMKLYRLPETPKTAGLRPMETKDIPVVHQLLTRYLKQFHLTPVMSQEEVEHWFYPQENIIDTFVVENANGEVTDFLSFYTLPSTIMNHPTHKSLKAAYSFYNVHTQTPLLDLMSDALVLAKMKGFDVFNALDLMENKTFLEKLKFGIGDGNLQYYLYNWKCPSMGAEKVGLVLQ

[3] = tested on: P. vivax hypnozoites; experiment: P. vivax liver stage assay in primary human hepatocytes, hypnozoites; assay type: cell-based; details: Plasmodium vivax, Hepatocyte; for IC50: 8 dpi, primary human hepatocytes, read-out: liver stage Pv hypnozoites IC50
Procedure: Finally, the NMT-binding compounds were evaluated against non-developing P. vivax hypnozoites. […] .

[4] = tested on: Plasmodium NMT; details: background, cited from earlier work
[5] = tested on: P. falciparum; details: background; read-out: EC50 in a P. falciparum growth assay; cited from earlier work
[6] = tested on: HepG2 cells; experiment: HepG2 cytotoxicity assay (live/dead staining); assay type: cell-based, human; details: positive control, 10-20 μM
Procedure: (§1) Therefore, the cytotoxicity of the compounds was assessed in the human hepatoma HepG2 cell line. The compounds with PvNMT to HsNMT selectivity index above 20 were shortlisted for further screening.

[7] = tested on: P. falciparum NF54 ring-stage parasites; experiment: P. falciparum blood stage assay (SYBR Green parasite DNA); assay type: cell-based; details: Plasmodium falciparum, NF54, 72 h; read-out: blood stage Pf NF54 IC50
Procedure: To assess whether any of the NMTis developed here could qualify as TCP-1 candidates, the effect of each compound on blood-stage P. falciparum parasites was assessed, as there is currently no well-established in vitro platform for screening P. vivax blood-stage parasites. Synchronized P. falciparum NF54 ring stage parasites were treated for 72 h with each compound at various concentrations, ranging from 0.625 μM to 10 μM, and parasite DNA replication was measured using a fluorescent DNA binding dye (SYBR Green).
Sorbitol-synchronized P. falciparum NF54 ring-stage parasites were cultured at a parasitemia of 0.5% and hematocrit of 1.5% in a 96-well microtiter plate. […] Direct lysis of the blood cells to release the parasite DNA was performed by adding 100 μL of LBS buffer containing SYBR green I DNA binding dye to each well. Plates were incubated at-20° C. overnight for complete lysis and fluorescence was measured at 485 nm (excitation) and 528 nm (emission). ICEstimator regression analysis (antimalarial-icestimator dot net) was used to obtain relative IC50 values for each compound.

[8] = tested on: P. vivax liver stage schizonts; experiment: P. vivax liver stage assay in primary human hepatocytes, schizonts; details: Plasmodium vivax, Hepatocyte, read-out: liver stage Pv schizonts IC50 (μM)
Procedure: P. vivax sporozoites were obtained from three independent patient isolates. Liver stage infections were cultured in primary human hepatocytes from a single donor lot using a 384-well microculture system as described previously. Cells were infected and treated with NMTis at 20 μM beginning day 5 post-infection until day 8 when the infection rates were quantified via fluorescent microscopy. […] Accordingly, dose-response curves of all the shortlisted NMTis on parasite isolates 3 and 4 were applied over concentrations up to 20 μM (FIGS. 4C and D).
Plasmodium vivax liver stage assays were performed as described previously. Briefly, 384-well plates were seeded with primary hepatocytes from a single donor lot at a density of 25,000 cells per well. The hepatocytes were then infected with 14,000 freshly hand-dissected sporozoites per well. Cells were exposed to the compounds at indicated concentrations from day 3 post-infection, then proceeded to feed cultures every day, replacing the compounds until day 8 post-infection. Cells were fixed with 4% PFA and stained with PvUIS4 antibodies to detect schizonts and hypnozoites forms by confocal microscopy. The images were processed and analyzed using IMARIS (Bitplane Inc.) image analysis software.

[9] = HepG2 cytotoxicity assay (live/dead staining); assay type: cell-based, human; details: human
Procedure: as §1

[10] = Table 1, enzyme selectivity calculated as HsNMT IC50/PvNMT IC50
[11] = Table 1, mean values of two or more determinations

## c1cncc(CCOc2ccc3ccccc3c2-c2ccnc(N3CCNCC3)c2)c1 [Compound 30c, 1-(4-(2-(2-(pyridin-3-yl)ethoxy)naphthalen-1-yl)pyridin-2-yl)piperazine]
[1]; Table 2
  IC50: 248 nM
[1]; Table 2, HsNMT IC50/PvNMT IC50
  SI**: 161
[2]; Table 2
  IC50: > 40000 nM
[3]; 20 μM
  inhibition at 20 µM: > 75%

## Cc1nn(C)c(C)c1CCOc1cc(F)ccc1-c1ccc2c(c1)c(CN(C)C)nn2C [IMP-1002]
[4]; previously developed NMT inhibitors
  IC50: 0.003 µM
[4]
  selectivity over HsNMT1/2: up to fourfold
[5]
  EC50: 0.01 µM

## CN[C@@H]1C[C@H]2O[C@@](C)([C@@H]1OC)n1c3ccccc3c3c4c(c5c6ccccc6n2c5c31)C(=O)NC4 [Staurosporine, reference compound]
[6]
  effect on HepG2 cell viability: reduced the cell viability

## Cc1nn(C)c(C)c1CCOc1ccc2ccccc2c1-c1ccnc(N2CCNCC2)c1 [Compound 30a, 1-(4-(2-(2-(1,3,5-trimethyl-1H-pyrazol-4-yl)ethoxy)naphthalen-1-yl)pyridin-2-yl)piperazine]
[1]; Table 2
  IC50: 89 nM
[1]; Table 2, HsNMT IC50/PvNMT IC50
  SI**: 269.8
[1]; ratio of IC50 values for HsNMT1 and PvNMT
  selectivity index (SI): 269
[2]; Table 2
  IC50: 24000 nM
[7]
  IC50: 0.44 µM
[8]
  IC50: 2.9 to 4.3 µM
[3]
  IC50: 2.1 µM
[9]
  IC50 at 48 h: > 20 µM

## Cc1nn(C)c(C)c1CCOc1cc(F)ccc1-c1cccc(N2CCNCC2)c1 [Compound 12f, 1-(4′-fluoro-2′-(2-(1,3,5-trimethyl-1H-pyrazol-4-yl)ethoxy)-[1,1′-biphenyl]-3-yl)piperazine]
[1]; [10]
  SI**: 43.9
[1]; [11]
  IC50: 15.9 nM
[2]; [11]
  IC50: 699 nM

## Cc1nn(C)c(C)c1CCOc1cccnc1-c1ccnc(N2CCNCC2)c1 [Compound 12a, 2′-(piperazin-1-yl)-3-(2-(1,3,5-trimethyl-1H-pyrazol-4-yl)ethoxy)-2,4′-bipyridine]
[1]; [10]
  SI**: 146.7
[1]; [11]
  IC50: 36.8 nM
[2]; [11]
  IC50: 5400 nM

## 3-(2′-(3,5-dimethyl-1H-pyrazol-4-yl)ethoxy-4′-fluoro-[1,1′-biphenyl]-3-yl)piperazine [Compound 12p]
[1]; [10]
  SI**: 62.7
[1]; [11]
  IC50: 368 nM
[2]; [11]
  IC50: 23100 nM

## Cc1nn(C)c(C)c1CCOc1cc(F)ccc1-c1cccc(OCCN(C)C)c1 [Compound 26c, 2-((4′-fluoro-2′-(2-(1,3,5-trimethyl-1H-pyrazol-4-yl)ethoxy)-[1,1′-biphenyl]-3-yl)oxy)-N,N-dimethylethan-1-amine]
[1]; Table 2
  IC50: 29.4 nM
[1]; Table 2, HsNMT IC50/PvNMT IC50
  SI**: 162.3
[2]; Table 2
  IC50: 4790 nM

## Cc1nn(C)c(C)c1CCOc1ccccc1-c1ccnc(N2CCNCC2)c1 [Compound 12c, 1-(4-(2-(2-(1,3,5-trimethyl-1H-pyrazol-4-yl)ethoxy)phenyl)pyridin-2-yl)piperazine]
[1]; [10]
  SI**: 63.1
[1]; [11]
  IC50: 9.48 nM
[2]; [11]
  IC50: 599 nM

## Cc1n[nH]c(C)c1CCOc1cc(F)ccc1-c1ccnc(N2CCNCC2)c1 [Compound 12q, 1-(4-(2-(2-(3,5-dimetyl-1H-pyrazol-4-yl)ethoxy)-4-fluorophenyl)piridin-2-yl)piperazine]
[1]; [10]
  SI**: 22
[1]; [11]
  IC50: 73 nM
[2]; [11]
  IC50: 1630 nM
[7]
  IC50: 0.38 µM
[8]
  IC50: 2.2 to 3.5 µM
[3]
  IC50: 4.4 µM
[9]
  IC50 at 48 h: > 20 µM

## Cc1nn(C)c(C)c1CCOc1ccccc1-c1cccc(N2CCNCC2)c1 [Compound 12d, 1-(2′-(2-(1,3,5-trimethyl-1H-pyrazol-4-yl)ethoxy)-[1,1′-biphenyl]-3-yl)piperazine]
[1]; [10]
  SI**: 153.4
[1]; [11]
  IC50: 48.5 nM
[2]; [11]
  IC50: 7440 nM

## Cc1nn(C)c(C)c1NS(=O)(=O)c1c(Cl)cc(-c2ccnc(N3CCNCC3)c2)cc1Cl [DDD85646]
[5]
  EC50: 0.069 µM
